The source of these data is US20240401073A1, “ALS INHIBITOR HERBICIDE TOLERANT BETA VULGARIS MUTANTS” (KWS SAAT SE & Co. KGaA, priority 2021, published 2024).

Series [1] deals with homozygous BvALS_D371E mutants. It is filed as in vivo, Beta vulgaris (sugar beet). The settings on record: greenhouse, 1× recommended field application concentration, treated when first true leaves appeared, rated 14 days after treatment; growing of first pair of true leaves as indicator. From the text:
(§1) The identified ALS mutants have been tested repeatedly in CONVISO® ONE treatments in concentrations used for field treatments as well as in treatment with the individual active ingredients of CONVISO® ONE, Foramsulfuron and Thiencarbazon-methyl, treatment with Pulsar® 40 (active ingredient: Imazamox), treatment with active ingredient Bispyribac, and treatment with Broadway® (active ingredients: Florasulam, Pyroxylam) (Table 1). All herbicide treatments has been conducted with amount corresponding to 1× recommended field application concentration: Offspring seed of both, a plant homozygous and heterozygous for BvALS_D371E mutation as well as the M0-background genotype were sown, cultivated in a greenhouse and transplanted to single pots after emergence. Herbicide treatments were performed when first true leaves appeared.
(§2) Tolerance ratings were taken 14 days after treatment. Growing of the first pair of true leaves was used as indicator for herbicide tolerance.

Series [2] relates to heterozygous BvALS_D371E mutants. The class given is in vivo, Beta vulgaris (sugar beet). To be noted: greenhouse, 1× recommended field application concentration, treated when first true leaves appeared, rated 14 days after treatment; growing of first pair of true leaves as indicator.
Text: as §1, §2

In series [3] the test system is sugar beet mutant line carrying W569L. The settings on record: WO 2012/049268; cited from earlier work.

For the compound `COc1cc(OC)nc(Oc2cccc(Oc3nc(OC)cc(OC)n3)c2C(=O)O)n1` [Bispyribac], in series [1], the “Herbicide tolerance, Homozygous mutants” value is “Tolerant”. In addition, the “Herbicide tolerance, Heterozygous mutants” value in series [2] is given as “tolerant”.
With `COc1cc(OC)nc(NC(=O)NS(=O)(=O)c2cc(NC=O)ccc2C(=O)N(C)C)n1` [foramsulfuron], the “Herbicide tolerance, Homozygous mutants” value in series [1] is recorded as “Tolerant”. In addition, the “Herbicide tolerance, Heterozygous mutants” value in series [2] is reported as “tolerant”. Moreover, the “herbicide tolerance of W569L mutant line” value in series [3] is “tolerant”.
Regarding `COC(=O)c1csc(C)c1S(=O)(=O)NC(=O)n1nc(OC)n(C)c1=O` [thiencarbazone-methyl], the “Herbicide tolerance, Homozygous mutants” value in series [1] was “Tolerant”. In addition, the “Herbicide tolerance, Heterozygous mutants” value in series [2] is given as “tolerant”. Moreover, in series [3], the “herbicide tolerance of W569L mutant line” value is reported as “tolerant”.
